In paper PMC7475246, “Unravelling the effect of two herbicide resistance mutations on acetolactate synthase kinetics and growth traits” (Journal of Experimental Botany, 2020):

Test system: T1, acetolactate synthase (ALS; AHAS), ALS1 and ALS2
T1 construct: native enzyme, partially purified by ammonium sulfate precipitation from young shoots (three- to four-leaf stage); mixture of ALS1 and ALS2
Assay: in vitro ALS activity, colorimetric acetoin assay at […] nm
Format: biochemical, Alopecurus aequalis
Settings: 37 °C, 60 min; pH 7.5 HEPES, MgCl2, thiamine pyrophosphate, FAD; extract buffer with 200 mM pyruvate mixed 1:1 with MM; mean of three susceptible populations; read-out: I50

COC(=O)c1ccc(CNS(C)(=O)=O)cc1S(=O)(=O)NC(=O)Nc1nc(OC)cc(OC)n1 [MM, mesosulfuron-methyl] showed an IC50 of 35.5 nM.
